This note sets out measurements from US10813980B2, “Methods for treating osteoarthritis by administering linked variants of growth hormone and somatostatin” (REGULAXIS, priority 2016, dated 2020).

Several values for one entry are separate records, joined by “and”; a condition that tells them apart may be missing. Equal values may be shown once. No end group written: not given here.

The subject of data set [1] is male Duncan-Hartley guinea pigs. Put plainly: In vivo efficiency in guinea pig spontaneous knee osteoarthritis, intra-articular injection, histological analysis. As to conditions: for cartilage thickness / sum of the scores representing the degradation of several structures in the joint (total scoring of degradation parameters): five month after intra-articular injection of 50 μl per knee; for cartilage thickness: * p<0.05; for sum of the scores representing the degradation of several structures in the joint (total scoring of degradation parameters): peptide 10^−7 M, vs control and hyaluronic acid alone. The procedure: Peptide of the invention (corresponding to SEQ ID NO: 4) was dissolved at 2.5 mg/ml in water for injection (CDM Lavoisier) to make a stock solution conserved at −20° C. The syringe was prepared by aspiration of 50 μl of peptide work solution prepared just before use at 10^−7 M (other concentrations are tested) in NaCl 0.9% and kept on ice until use.
The study was performed on male Duncan-Hartley guinea pigs (Harlan), whose particularity is to be affected with age of spontaneous and progressive degeneration of the knee that closely resembles knee osteoarthritis (OA) in humans. Seven 5-month-old animals (weighing 879 g.+/−58.1) were injected per group. Animals were treated in accordance with institutional animal care guidelines. Animals were anesthetized with an anesthesia module (Minerva) with a rapid induction device (4% isoflurane) and anesthesia was maintained using a specific device mask in guinea coaxial (2.5% isoflurane). 50 μl of the peptide of the invention or control—salt solution or Hyalgan® (10 mg/ml solution of MW 500-730 kDa hyaluronic—Laboratoire Expanscience, available in the market)—were injected on each hind legs of the animal into the joint space from the lateral side using a 29 G needle. This was followed by passive knee joint movements to facilitate the intra-articular distribution of the solution.
Five month after injection, the two knee joints from each animal were fixed for 36 to 48 hours in 10% buffered formalin then kept in 70% ethanol and followed by decalcification in 15% EDTA in phosphate buffer. Paraffin sections (3-4 μm) of the central region of the joint were stained with haematoxylin and eosin for histological analyses of cartilage structure, namely: loss of cartilage matrix, cellular abnormalities, appearance of articular cartilage mineralization front, formation of osteophytes and synovial membrane (microscopy: Nikon 80i). A semi-quantitative modified Mankin histological grading system was used to evaluate OA severity (Kraus et al., The OARSI histopathology initiative recommendations for histological assessments of osteoarthritis in the Guinea Pig. Osteoarthritis Cartilage, 2010 (18 S3) S35-S52). The articular cartilage area was analyzed quantitatively by immunohistochemistry (Pastoureau et al., Cartilage, bone and synovial histomorphometry in animal models of osteoarthritis. Osteoarthritis Cartilage. 2010 October; 18 Suppl 3:S106-12). Sections of guinea pig knees were stained with monoclonal antibody (monoclonal anti-chicken mouse collagen II, 6B3 clone—reference MAB887/250, Millipore). The measurement of the total area of articular cartilage was performed with Color deconvolution H DAB and Siox and the measurement of joint height by ImageJ (“Fit Ellipse” module). Statistical analyzes of scoring and quantification results were performed using a Kruskal-Wallis test followed by Dunn's test using PRISM software.

Data set [2] can be described thus: Raman scattering measurements of peptide conformation (stability of the peptide). Conditions: in water, peptide 0.9 mM, with or without HA 1%. Format: physicochemical. The procedure: Peptide alone, at a concentration of 0.9 mM (2.5 mg/ml), was dissolved in a Millipore filter treated water. Peptide+HA solution consists of peptide dissolved at 0.9 mM in a solution of HA (1.8 MDa) at 1% (10 mg/ml) in water.
Samples were placed in a suprasil quartz cell (5 mm path length) and excited by the 488 nm line of an Ar+ laser (Spectra Physics, CA, USA) with a ˜200 mW power at the sample. Scattered light at right angle was analyzed on a Jobin-Yvon T64000 (HORIBA Jobin-Yvon, France) in a single spectrograph configuration with a 1200 grooves per mm holographic grating and a holographic notch filter. Stokes Raman data were collected by means of a liquid nitrogen cooled CCD detection system (Spectrum One, Jobin-Yvon, France). The effective spectral slit width was set to ˜5 cm^−1. Each recorded spectrum corresponds to a total acquisition time of 1200 s. Buffer subtraction and smoothing of the observed Raman spectra could be performed using the GRAMS/AI package (Thermoage Galactic, MA, USA). The final presentation of these spectra was performed by means of SigmaPlot package (Systat Software Inc., CA, USA).

Setting [3] is: listed as peptide of the invention.
Where [4] appears, read: five month after intra-articular injection, medial tibial surface of the knee, compared with sham (and HA).

Turning to GTSDRVYEKLAGSKNFFWKTFTSS [SEQ ID NO: 4], in data set [1], the cartilage thickness entry is listed as “increased cartilage thickness” and the “sum of the scores representing the degradation of several structures in the joint (total scoring of degradation parameters)” value is “significantly decreased degradation of cartilage structure”. Besides, in data set [1] (setting [3]), the cartilage thickness result was “increase in the thickness of the cartilage” and the “sum of the scores representing the degradation of several structures in the joint (total scoring of degradation parameters)” value is recorded as “lowest”. Besides, the osteophytes scoring result in data set [1] (five month after intra-articular injection, ** p<0.001) was “decreased osteophytes scoring”. Also, the “type II Collagen content (staining)” value in data set [1] (five month after intra-articular injection, immunohistochemistry, compared with sham (and HA)) is recorded as “greater synthesis of type II collagen”. In data set [1] (setting [4]), the “cartilage structure scoring (cartilage structural damage)” value was “lowest severity” and the “proteoglycan content (proteoglycan loss)” value is listed as “lowest severity”. Besides, in data set [2], the “secondary conformation / structure stability by Raman spectra” value is “unstable structure in water”. In addition, the “secondary conformation / structure stability by Raman spectra” value in data set [2] (listed as peptide alone) is “Several (4) secondary conformations and 4 major bands”.
